Data taken from patent publication US9499550B2 (BRISTOL-MYERS SQUIBB COMPANY, priority 2012, dated 2016).
Where two headings read alike, the source gives them in different places.

How the values were obtained:
[1] = system: HCV genotype 1a (H77 strain) replicon in HUH-7 cells; test: HCV replicon luciferase reporter assay, genotype 1a; assay type: cell-based; conditions: Hepatitis C virus, Huh-7, 72 h, 3 days incubation, read-out: LE_1a (EC50, range)
Method in brief: (§1)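 Replicon inhibition for both genotypes was measured as Renilla luciferase signal (EnduRen, 7.5 μM final, 2 h) after 3-day, 37° C exposure of replicon-bearing HUH-7 cells in 4% FCS DMEM, 0.5% DMSO. The 1b construct carries S1179I; the 1a H77 construct carries P1496L and S2204I. Twenty-point, 3-fold dilutions were fitted four-parametrically for EC50, and CC50 was taken from multiplexed Cell Titer-Blue.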

[2] = system: HCV genotype 1b (Con1) replicon in HUH-7 cells; test: HCV replicon luciferase reporter assay, genotype 1b; assay type: cell-based; conditions: Hepatitis C virus, Huh-7, 72 h, 3 days incubation, read-out: LE_1b (EC50, range)
Method in brief: as §1

[3] = HCV genotype 1a replicon luciferase
[4] = HCV genotype 1b replicon luciferase
[5] = HCV genotype 1a replicon luciferase assay, range class
[6] = HCV genotype 1b replicon luciferase assay, range class

CCn1nc(O[C@@H]2C[C@H]3C(=O)N[C@]4(C(=O)NS(=O)(=O)C5CC5)C[C@H]4/C=C\CC[C@@H](C)C[C@@H](C)[C@H](NC(=O)C(=O)N(C)C)C(=O)N3C2)c2ccccc2c1=O [Compound 5076, N1-((2R,6S,7R,9R,13aS,14aR,16aS,Z)-14a-((cyclopropylsulfonyl)carbamoyl)-2-((3-ethyl-4-oxo-3,4-dihydrophthalazin-1-yl)oxy)-7,9-dimethyl-5,16-dioxo-1,2,3,5,6,7,8,9,10,11,13a,14,14a,15,16,16a-hexadecahydrocyclopropa[e]pyrrolo[1,2-a][1,4]diazacyclopentadecin-6-yl)-N2,N2-dimethyloxalamide]
EC50 [1, 3]: > 87.4 nM | EC50 [2, 4]: > 87.4 nM

COc1ccc2c(O[C@@H]3C[C@H]4C(=O)N[C@]5(C(=O)NS(=O)(=O)C6(CF)CC6)C[C@H]5/C=C\CC[C@@H](C)C[C@@H](C)[C@H](NC(=O)OC(C)(C)C)C(=O)N4C3)ncc(OC)c2c1 [Compound 4156, tert-butyl (2R,6S,7R,9R,13aS,14aR,16aS,Z)-2-(4,6-dimethoxyisoquinolin-1-yloxy)-14a-(1-(fluoromethyl)cyclopropylsulfonylcarbamoyl)-7,9-dimethyl-5,16-dioxo-1,2,3,5,6,7,8,9,10,11,13a,14,14a,15,16,16a-hexadecahydrocyclopropa[e]pyrrolo[1,2-a][1,4]diazacyclopentadecin-6-ylcarbamate]
EC50 [1, 3]: < 5.46 nM | EC50 [2, 4]: < 5.46 nM

C[C@@H]1CC/C=C\[C@@H]2C[C@@]2(C(=O)NS(=O)(=O)C2(C)CC2)NC(=O)[C@@H]2C[C@@H](Oc3nccc4c5c(ccc34)OCCO5)CN2C(=O)[C@@H](NC(=O)O[C@@H]2C[C@@H]3C[C@@H]3C2)[C@H](C)C1 [Compound 5249, (1R,3r,5 S)-bicyclo[3.1.0]hexan-3-yl((2R,6S,7R,9R,13aS,14aR,16aS,Z)-2-((2,3-dihydro-[1,4]dioxino[2,3-f]isoquinolin-7-yl)oxy)-7,9-dimethyl-14a-(((1-methylcyclopropyl)sulfonyl)carbamoyl)-5,16-dioxo-1,2,3,5,6,7,8,9,10,11,13a,14,14a,15,16,16a-hexadecahydrocyclopropa[e]pyrrolo[1,2-a][1,4]diazacyclopentadecin-6-yl)carbamate]
EC50 [1, 3]: < 5.46 nM | EC50 [2, 4]: < 5.46 nM

COc1ccc2c(O[C@@H]3C[C@H]4C(=O)N[C@]5(C(=O)NS(=O)(=O)C6(CF)CC6)C[C@H]5/C=C\CC[C@H](C)C[C@@H](C)[C@H](NC(=O)OC(C)(C)C)C(=O)N4C3)nc(N(C)C)cc2c1 [Compound 3122, tert-butyl ((2R,6S,7R,9S,13aS,14aR,16aS,Z)-2-((3-(dimethylamino)-6-methoxyisoquinolin-1-yl)oxy)-14a-(((1-(fluoromethyl)cyclopropyl)sulfonyl)carbamoyl)-7,9-dimethyl-5,16-dioxo-1,2,3,5,6,7,8,9,10,11,13a,14,14a,15,16,16a-hexadecahydrocyclopropa[e]pyrrolo[1,2-a][1,4]diazacyclopentadecin-6-yl)carbamate]
EC50 [1, 5]: 4.82 to 103 nM | EC50 [2, 6]: 4.82 to 103 nM

[2H]C([2H])([2H])Oc1cnc(O[C@@H]2C[C@H]3C(=O)N[C@]4(C(=O)NS(=O)(=O)C5(C)CC5)C[C@H]4/C=C\CC[C@H](C)C[C@@H](C)[C@H](NC(=O)OC(C)(C)C(C)(F)F)C(=O)N3C2)c2ccccc12 [Compound 5108, 3,3-difluoro-2-methylbutan-2-yl((2R,6S,7R,9S,13aS,14aR,16aS,Z)-7,9-dimethyl-14a-(((1-methylcyclopropyl)sulfonyl)carbamoyl)-5,16-dioxo-2-((4-(trideuteromethoxy)isoquinolin-1-yl)oxy)-1,2,3,5,6,7,8,9,10,11,13a,14,14a,15,16,16a-hexadecahydrocyclopropa[e]pyrrolo[1,2-a][1,4]diazacyclopentadecin-6-yl)carbamate]
EC50 [1, 3]: < 5.46 nM | EC50 [2, 4]: < 5.46 nM

CCOc1cc2ccnc(O[C@@H]3C[C@H]4C(=O)N[C@]5(C(=O)NS(=O)(=O)C6CC6)C[C@H]5/C=C\CC[C@@H](C)C[C@@H](CC)[C@H](NC(=O)OC(C)(C)C(C)(F)F)C(=O)N4C3)c2cc1F [Compound 5409, 3,3-difluoro-2-methylbutan-2-yl((2R,6S,7R,9R,13aS,14aR,16aS,Z)-14a-((cyclopropylsulfonyl)carbamoyl)-2-((6-ethoxy-7-fluoroisoquinolin-1-yl)oxy)-7-ethyl-9-methyl-5,16-dioxo-1,2,3,5,6,7,8,9,10,11,13a,14,14a,15,16,16a-hexadecahydrocyclopropa[e]pyrrolo[1,2-a][1,4]diazacyclopentadecin-6-yl)carbamate]
EC50 [1, 3]: 1.01 to 5 nM | EC50 [2, 4]: 0.51 to 1 nM

CCOc1ccc2nc(C(F)(F)F)c(O[C@@H]3C[C@H]4C(=O)N[C@]5(C(=O)NS(=O)(=O)C6(C)CC6)C[C@H]5/C=C\CC[C@H](C)C[C@@H](C)[C@H](NC(=O)OC(C)(C)C)C(=O)N4C3)nc2c1 [Compound 4347, tert-butyl ((2R,6S,7R,9S,13aS,14aR,16aS,Z)-2-((7-ethoxy-3-(trifluoromethyl)quinoxalin-2-yl)oxy)-7,9-dimethyl-14a-(((1-methylcyclopropyl)sulfonyl)carbamoyl)-5,16-dioxo-1,2,3,5,6,7,8,9,10,11,13a,14,14a,15,16,16a-hexadecahydrocyclopropa[e]pyrrolo[1,2-a][1,4]diazacyclopentadecin-6-yl)carbamate]
EC50 [1, 3]: 5.01 to 35 nM | EC50 [2, 4]: 1.01 to 5 nM

C[C@@H]1CC/C=C\[C@@H]2C[C@@]2(C(=O)NS(=O)(=O)C2(C)CC2)NC(=O)[C@@H]2C[C@@H](Oc3nccc4c5c(ccc34)N(C)CCO5)CN2C(=O)[C@@H](NC(=O)NC(C)(C)C)[C@H](C)C1 [Compound 5302, (2R,6S,7R,9R,13aS,14aR,16aS,Z)-6-(3-(tert-butyl)ureido)-7,9-dimethyl-2-((4-methyl-3,4-dihydro-2H-[1,4]oxazino[2,3-f]isoquinolin-7-yl)oxy)-N-((1-methylcyclopropyl)sulfonyl)-5,16-dioxo-1,2,3,5,6,7,8,9,10,11,13a,14,14a,15,16,16a-hexadecahydrocyclopropa[e]pyrrolo[1,2-a][1,4]diazacyclopentadecine-14a-carboxamide]
EC50 [1, 3]: < 5.46 nM | EC50 [2, 4]: < 5.46 nM

COc1ccc2c(O[C@@H]3C[C@H]4C(=O)N[C@]5(C(=O)NS(=O)(=O)C6CC6)C[C@H]5/C=C\CC[C@@H](C)C[C@@H](C)[C@H](NC(=O)OC(C)(C)C(F)(F)F)C(=O)N4C3)nc(-c3ccc(F)cc3)cc2c1 [Compound 3044, 1,1,1-trifluoro-2-methylpropan-2-yl((2R,6S,7R,9R,13aS,14aR,16aS,Z)-14a-((cyclopropylsulfonyl)carbamoyl)-2-((3-(4-fluorophenyl)-6-methoxyisoquinolin-1-yl)oxy)-7,9-dimethyl-5,16-dioxo-1,2,3,5,6,7,8,9,10,11,13a,14,14a,15,16,16a-hexadecahydrocyclopropa[e]pyrrolo[1,2-a][1,4]diazacyclopentadecin-6-yl)carbamate]
EC50 [1, 5]: < 5.46 nM | EC50 [2, 6]: < 5.46 nM

CC(C)n1nc(O[C@@H]2C[C@H]3C(=O)N[C@]4(C(=O)NS(=O)(=O)C5(C)CC5)C[C@H]4/C=C\CC[C@@H](C)C[C@@H](C)[C@H](NC(=O)OC(C)(C)C(F)(F)F)C(=O)N3C2)c2ccccc2c1=O [Compound 1012, 1,1,1-trifluoro-2-methylpropan-2-yl((2R,6S,7R,9R,13aS,14aR,16aS,Z)-2-((3-isopropyl-4-oxo-3,4-dihydrophthalazin-1-yl)oxy)-7,9-dimethyl-14a-(((1-methylcyclopropyl)sulfonyl)carbamoyl)-5,16-dioxo-1,2,3,5,6,7,8,9,10,11,13a,14,14a,15,16,16a-hexadecahydrocyclopropa[e]pyrrolo[1,2-a][1,4]diazacyclopentadecin-6-yl)carbamate]
EC50 [1, 5]: 4.82 to 103 nM | EC50 [2, 6]: 4.82 to 103 nM

CC[C@@H]1C[C@H](C)CC/C=C\[C@@H]2C[C@@]2(C(=O)NS(=O)(=O)C2(C)CC2)NC(=O)[C@@H]2C[C@@H](Oc3nc(OC)cc4cc(F)ccc34)CN2C(=O)[C@H]1NC(=O)OC(C)(C)C(F)(F)F [Compound 3220, 1,1,1-trifluoro-2-methylpropan-2-yl((2R,6S,7R,9R,13aS,14aR,16aS,Z)-7-ethyl-2-((6-fluoro-3-methoxyisoquinolin-1-yl)oxy)-9-methyl-14a-(((1-methylcyclopropyl)sulfonyl)carbamoyl)-5,16-dioxo-1,2,3,5,6,7,8,9,10,11,13a,14,14a,15,16,16a-hexadecahydrocyclopropa[e]pyrrolo[1,2-a][1,4]diazacyclopentadecin-6-yl)carbamate]
EC50 [1, 3]: 1.01 to 5 nM | EC50 [2, 4]: 0.1 to 0.5 nM

CC[C@@H]1C[C@@H](C)CC/C=C\[C@@H]2C[C@@]2(C(=O)NS(=O)(=O)C2(C)CC2)NC(=O)[C@@H]2C[C@@H](Oc3nnc(OC)c4ccccc34)CN2C(=O)[C@H]1NC(=O)OC(C)(C)C(F)(F)F [Compound 5017, 1,1,1-trifluoro-2-methylpropan-2-yl((2R,6S,7R,9S,13aS,14aR,16aS,Z)-7-ethyl-2-((4-methoxyphthalazin-1-yl)oxy)-9-methyl-14a-(((1-methylcyclopropyl)sulfonyl)carbamoyl)-5,16-dioxo-1,2,3,5,6,7,8,9,10,11,13a,14,14a,15,16,16a-hexadecahydrocyclopropa[e]pyrrolo[1,2-a][1,4]diazacyclopentadecin-6-yl)carbamate]
EC50 [1, 3]: 4.82 to 103 nM | EC50 [2, 4]: < 5.46 nM
